Data: PMC4147353 (Nature Communications, 2014)

How the values were obtained:
USP7 = USP7 (Homo sapiens, UniProt Q93009); test: MALDI-TOF DUB assay, inhibitor IC50 on USP7; type: biochemical; conditions: for potency for USP7 relative to the second most sensitive DUB on the panel (USP21): from IC50 values
panel of 32 DUBs = type: biochemical, human
[1] = type: physicochemical; conditions: 1 mM DTT or 0.5 mM TCEP, 30 °C for 1 h, DUB assay conditions; data not shown

Sequence of USP7 (Q93009 whole entry): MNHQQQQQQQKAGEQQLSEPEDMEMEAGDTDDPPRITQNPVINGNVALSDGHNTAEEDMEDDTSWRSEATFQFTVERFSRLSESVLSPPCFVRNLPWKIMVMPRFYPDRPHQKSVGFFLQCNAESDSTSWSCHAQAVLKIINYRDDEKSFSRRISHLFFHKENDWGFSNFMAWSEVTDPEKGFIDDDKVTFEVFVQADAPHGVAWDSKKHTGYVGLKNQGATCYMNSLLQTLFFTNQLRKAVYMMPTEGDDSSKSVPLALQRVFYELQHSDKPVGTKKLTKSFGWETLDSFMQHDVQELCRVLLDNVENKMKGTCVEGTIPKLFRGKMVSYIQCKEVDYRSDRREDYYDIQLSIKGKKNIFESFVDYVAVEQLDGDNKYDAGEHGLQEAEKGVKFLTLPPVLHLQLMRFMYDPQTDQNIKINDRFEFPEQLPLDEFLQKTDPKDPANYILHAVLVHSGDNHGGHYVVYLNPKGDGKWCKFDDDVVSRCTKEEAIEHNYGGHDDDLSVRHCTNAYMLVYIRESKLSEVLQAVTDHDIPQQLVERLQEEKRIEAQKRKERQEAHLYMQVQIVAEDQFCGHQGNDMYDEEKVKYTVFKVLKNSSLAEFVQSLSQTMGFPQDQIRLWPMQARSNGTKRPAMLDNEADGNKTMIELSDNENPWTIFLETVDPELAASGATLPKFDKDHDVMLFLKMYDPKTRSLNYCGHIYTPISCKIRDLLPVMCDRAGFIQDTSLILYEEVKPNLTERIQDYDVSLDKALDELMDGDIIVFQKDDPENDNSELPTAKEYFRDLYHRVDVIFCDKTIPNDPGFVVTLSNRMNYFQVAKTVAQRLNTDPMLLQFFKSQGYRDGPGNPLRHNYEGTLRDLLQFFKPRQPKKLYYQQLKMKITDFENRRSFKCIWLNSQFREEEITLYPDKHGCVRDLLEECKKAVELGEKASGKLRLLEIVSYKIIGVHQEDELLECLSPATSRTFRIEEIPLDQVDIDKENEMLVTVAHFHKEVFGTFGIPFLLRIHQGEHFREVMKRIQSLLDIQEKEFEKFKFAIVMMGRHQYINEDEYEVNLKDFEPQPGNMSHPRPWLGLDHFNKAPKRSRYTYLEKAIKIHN

In the case of `Cc1ccc(S(=O)(=O)/C=C/C#N)cc1` [BAY 11-7082], the “potency for USP7 relative to the second most sensitive DUB on the panel (USP21)” value (USP7) is reported as “five- to eightfold higher potency”.
For `N#Cc1nc2c(nc1C#N)-c1ccc(Cl)cc1C2=O` [HBX 41,108], the “number of DUBs inhibited more than 70%” value (panel of 32 DUBs; of the 32 DUBs tested, at 5 μM) was 25.
For `Cc1ccc(S(=O)(=O)c2ccc([N+](=O)[O-])o2)cc1` [NSC 697923], the “potency for USP7 relative to the second most sensitive DUB on the panel (USP21)” value (USP7) was “five- to eightfold higher potency” and the “potency for USP7 relative to HBX 41,108” value (USP7; ratio of IC50 values, 0.08 μM versus 5.97 μM) was 70 fold.
For `N#CSc1cc(SC#N)c(N)nc1N` [PR-619], the “number of DUBs inhibited” value (panel of 32 DUBs; of the 32 tested DUBs) was 27.
For `CCC[C@H](NC(=O)/C(C#N)=C/c1cccc(Br)n1)c1ccccc1` [WP1130], the “reaction with reducing agents DTT and TCEP” value [1] was “significantly reacted with both DTT and TCEP”.
